Patent US4211794A, “N,N-Disubstituted aminomethylphenylethanolamines” (Pfizer Inc., priority 1979, dated 1980)

Columns and labels:
[1] = test system: encephalomyocarditis (EMC) virus; assay: Prophylactic use against encephalomyocarditis (EMC) viral infection in mice; type: in vivo, mice (female albino); details: single intraperitoneal, 18-24 hours before EMC challenge, tenth day after challenge, average of 2 runs
Description: Prophylactic use of compounds (1-I), (2-I) and (3-I) against infection by encephalomyocardis viral infection in mice
Three groups of ten female albino micce (20-25 g. body weight) were given single 0.5 ml. intraperitoneal injections containing dosage levels of 1.5, 5, and 15 mg. of the appropriate compound/kg. body weight, respectively. A fourth control group was given no such injection. Eighteen to twenty-four hours later all four groups were challenged with a 0.2 ml. subcutaneous injection containing 20-30 times the LD50, the dosage level causing a 50% death rate in ten days, of encephalomyocarditis (EMC) virus. The following relative average survival rates were found from an average of 2 such runs for compounds 1-I, 2-I and 3-I.
Antiviral activity is expressed as the average relative survival (Sr) of 2 runs of experimental groups compared to the controls on the tenth day after challenge. Sr is defined by the formula [formula] wherein Sr=relative survival;
Sx =percent survival after ten days in experimental group;
Xi =number of survivors on the ith day in experimental group;
ei =number of survivors on the ith day in control group.

Sarcoma 180J = Sarcoma 180J Model for Assessment of Tumor Rejection; type: in vivo, CD-1 mice (female); details: for %ILS (percent life span): day 1 after 10^6 S-180J cells i.p., observed until death or 40 days, TWEEN 80/glycerol aqueous suspension; for numbers of 40 day survivors: six mice per group
Description: Sarcoma 180J Model for Assessment of Tumor Rejection
Six female CD-1 mice (20-25 g) per group received 10^6 S-180J cells (5-8 days old) intraperitoneally (i.p.) on day O. The animals then received formulated drug (0.1 ml) at the desired dose on day 1 following tumor cell injection. The animals were observed until death or 40 days, whichever occurred first. Results using compounds 1-I, 2-I, 3I and 4I are expressed as percent life span (% ILS).
^ a compounds were formulated in TWEEN 80/glycerol aqueous
^b Numbers in parenthesis are numbers of 40 day survivors.

B-16 cells = assay: Peritoneal Exudate Cell Mediated Cytotoxicity in Vitro (macrophages from drug-injected mice); type: cell-based; details: Mus musculus, B16, effector:target 15:1, 24 hours at 37°, read-out: % Cytotoxicity (percent release drug-treated minus vehicle treated); for cytotoxicity at 1 mg/kg: 1 mg/kg injected to mice; for cytotoxicity at 5 mg/kg: 5 mg/kg injected to mice; for cytotoxicity at 25 mg/kg: 25 mg/kg injected to mice
Description: Peritoneal Exudate Cell Mediated Cytotoxicity in Vitro
Peritoneal exudate cells (PEC) from normal mice injected with immune potentiators or drug vehicle were harvested by gentle lavage with 3 ml cold RPMI 1640 medium (Grand Island Biological Co., N.Y.) supplemented with 5 units of heparin per ml of medium. Macrophages were identified morphologically, counted, and adjusted to 7.5×10^5 cells per ml of tissue culture medium; 0.2 ml volumes were added to microtiter wells containing 10^4 B-16 cells with ^125 IUDR label (effector: target cell ratio=15:1). After 24 hours at 37° in 5% CO2, supernatants were decanted and the adherent cells washed 3 times with pre-warmed RPMI 1640; the supernatant and washings were pooled and retained for counting. The adherent cells were treated with 1% sodium dodecyl sulfate (SDS) at room temperature for 30 minutes. The SDS-treated cells were harvested and the cells washed 3 times with RPMI 1640; cells and washings were pooled for counting. Supernatants and cells were counted in a Searle 1185 gamma counter. Results were expressed as: [formula]
The table below gives the percent cytotoxicity for 1-I, 2-I and 3-I wherein Percent Cytotoxicity equals (Percent release from drug-treated) minus (Percent release from vehicle treated).

Row | SMILES | Average Relative Survival (Sr) ([1]; 1.5 mg/kg) | Average Relative Survival (Sr) ([1]; 5 mg/kg) | Average Relative Survival (Sr) ([1]; 15 mg/kg) | %ILS (percent life span) (Sarcoma 180J; 5 mg/kg) [%] | numbers of 40 day survivors (Sarcoma 180J; 5 mg/kg) | %ILS (percent life span) (Sarcoma 180J; 15 mg/kg) [%] | numbers of 40 day survivors (Sarcoma 180J; 15 mg/kg) | %ILS (percent life span) (Sarcoma 180J; 50 mg/kg) [%] | numbers of 40 day survivors (Sarcoma 180J; 50 mg/kg) | cytotoxicity at 1 mg/kg (B-16 cells) [%] | cytotoxicity at 5 mg/kg (B-16 cells) [%] | cytotoxicity at 25 mg/kg (B-16 cells) [%]
1 | CCCCCCCCCCCCCCCCN(CCCCCCCCCCCCCCCC)Cc1cccc(C(O)CNCC)c1 (stereo not shown) [Compound 1-I, N-ethyl-2-[meta-N,N-di-n-hexadecylaminomethylphenyl]ethanolamine] | 24.5 | 65.5 | 70 | 150 | 1 | 210 | 4 | 235 | 5 | 35.7 | 25.6 | 23.8
2 | CCCCCCCCCCCCCCCCN(CCCCCCCCCCCCCCCC)Cc1cccc(C(O)CNC(C)C)c1 (stereo not shown) [Compound 3-I, N-isopropyl-2-[meta-N,N-di-n-hexadecylaminomethylphenyl]ethanolamine] | 27 | 54 | 87.5 | 154 | 2 | 185 | 4 | 212 | 6 | 42.4 | 35.1 | 33.4
3 | CCCCCCCCCCCCCCCCN(CCCCCCCCCCCCCCCC)Cc1cccc(C(O)CNC(C)(C)C)c1 (stereo not shown) [Compound 2-I, N-t-butyl-2-[meta-N,N-di-n-hexadecylamino-methylphenyl]ethanolamine] | 42.5 | 62.5 | 65.5 | 154 | 1 | 134 | – | 160 | 2 | 31.2 | 33.6 | 27.2
4 | CCCCCCCCCCCCCCCCN(CCCCCCCCCCCCCCCC)Cc1cccc(C(O)CN)c1 (stereo not shown) [Compound 4-I, 2-[meta-N,N-di-n-hexadecylaminomethylphenyl]ethanolamine] | – | – | – | 125 | – | 181 | 4 | 212 | 6 | – | – | –
